Source: patent publication US8722626B2, “Method for controlling fibrosis and other pathological deposits in tissues comprising administering a GHRP-6 composition” (Centro de Ingenieria Genetica y Biotecnologia, priority 2006, dated 2014)
Square brackets hold non-standard residues; d marks the D form. Ends that are not written are not given here. Peptide text beside a SMILES is read from it. * marks the point of attachment. dTrp(2-Me) = Cc1[nH]c2ccccc2c1C[C@@H](N)C(=O)O; Octanoyl = CCCCCCCC(=O)*

Tests used:
[1] = test system: transgenic mice over-expressing one mutated form of the NOTCH 3 gene; assay: Dementia of vascular origin: transgenic mice over-expressing mutated NOTCH 3 gene (CADASIL model, Example 6); type: in vivo, mouse; set-up: SODt (oxidative stress marker) / Cabalase (oxidative stress marker) / HPT (oxidative stress marker) / MDA (oxidative stress marker): unit not given here; conditions: 100 μg/kg i.p. twice a week, 16 weeks; for Cabalase (oxidative stress marker) / Cerebral Myo-inositol / HPT (oxidative stress marker) / MDA (oxidative stress marker) / SODt (oxidative stress marker): brain; for No. of blood vessels positive to Congo Red / No. of blood vessels positive to Nissl / No. of hemorrhagic foci. / No. of subcortical infarctions.: cerebral tissues
Experimental: This experiment was conducted to evaluate the efficacy of pharmaceutical compositions indistinctly containing one of the peptides GHRP-6, GHRP-2, hexarelin or ghrelin on the central neurofunctional involution process in transgenic mice over-expressing one mutated form of the NOTCH 3 gene in blood vessel smooth muscle cells. These animals develop in terms of months an arteriopathy similar to that of the CASADIL disease, referred to the descriptive memory, and is occurring as one of the main causes of vascular dementia. In these animals, vascular lesions also include retinal-cerebral, cerebral and cochlear vasculopathies. The beta-amiloid material present in the brain and blood vessels, the deposit of osmophilic granular material in brain and meningeal artery walls and their reduced lumen are histopathologically relevant. White-pale zones, microinfarction and hemorrhagic foci zones appear in the brain and its main nervous trunks.
Eighteen- to twenty-months-old male mice were employed when evidenced the symptoms of the disease. The animals were randomly assigned to the following experimental treatment groups: • A—Placebo group receiving the physiological saline solution. • B—Group receiving GHRP-6 at a 100 μg/kg dosage. • C—Group receiving GHRP-2 at a 100 μg/kg dosage. • D—Group receiving Ghrelin at a 100 μg/kg dosage. • E—Group receiving Hexarelin at a 100 μg/kg dosage.
Treatments were applied twice a week during 16 weeks by intraperitoneal route. When treatments concluded, autopsy studies were conducted irrespective of the clinical improvement evidenced in a great number of animals treated. Brain tissue samples including meningeal tissues were collected for biochemical and histopathological determinations. The animals received anesthesia overdosed and subjected to intra-cardiac perfusion with cold physiological saline solution to wash off the blood present in the encephala. The encephala were extracted and one encephalon was frozen in dry-ice and the other was fixed in 4% para-formaldehyde neutral. Samples were cryo-sliced at 10 μm and slices were stained with hematoxylin/eosin, Congo Red, or incubated with an antibody specific for the beta-amiloid protein. Morphometric procedures were carried out by microscopic imaging capture by a camera connected to the microscope, and the images were analyzed with the DIGIPAT software.
Number of fibrillar deposits of beta-amiloid in blood vessels.
Number of sub-cortical infarctions.
Number of sub-cortical hemorrhages.
Brain concentration of myo-inositol as indicator of aging and brain metabolism deterioration (μmol/g of tissue).
Brain oxidative stress markers.

[2] = test system: human keloid fragments xeno-transplanted in athymic mice; assay: Human keloid fragments xeno-transplanted into athymic mice (Example 7); type: in vivo, mouse; conditions: for No. of fields positive to collagen-specific staining: Picrosirius red and trichromic Masson's staining, 4× and 10× averaged; for No. of fields positive to collagen-specific staining / No. of microscopic fields with mast cells (20X magnif.): infiltrated once every 24 hrs during 7 days; for No. of microscopic fields with mast cells (20X magnif.): aniline blue staining; for Hydroxiproline content in the tissue / Wet weight of the graft collected: infiltrated at the edges in the implants once every 24 hrs during 7 days, 5 micrograms to 1 milligram
Text: To study the effect of peptides GHRP-6, GHRP-2, Hexarelin and/or Ghrelin in eradicating the pathological deposits of physiological material in the skin, human keloid fragments were xeno-transplanted into the dorsal region in athymic mice. After 72 hrs of evolution, to corroborate grafting and viability of xeno-transplants, the animals (N=6) were randomly distributed into the following experimental groups: • A—Saline control group (vehicle of the active principles). • B—Group receiving GHRP-6. • C—Group receiving GHRP-2. • D—Group receiving Ghrelin. • E—Group receiving Hexarelin. • Treatments were applied once every 24 hrs during 7 days. The substances were infiltrated at the edges in the implants, for local bioavailability of the active principles, at dosages from 5 micrograms to 1 milligram. After the treatment period, the animals were sacrificed and the implants extracted to evaluate the pharmacological response to every substance. Samples were weighed and fragmented for histological studies and biochemical determinations of collagen. The fragments for histological studies were fixed in 10% formalin neutral, and those fragments for biochemical analyses were stored at −70° C. • The parameters studied were: • a—Wet weight of the graft collected. • b—Hydroxiproline content in the tissue. • c—Number of microscopic fields with tissue positive to Picrosirius red staining and trichromic Masson's staining.

Cc1[nH]c2ccccc2c1C[C@@H](NC(=O)[C@@H](N)Cc1cnc[nH]1)C(=O)N[C@@H](C)C(=O)N[C@@H](Cc1c[nH]c2ccccc12)C(=O)N[C@H](Cc1ccccc1)C(=O)N[C@@H](CCCCN)C(N)=O [Hexarelin] (H-H[dTrp(2-Me)]AW[dF]K-NH2)
Cabalase (oxidative stress marker) [1]: 51.19 ± 7.84 | Cerebral Myo-inositol [1]: 11.88 ± 2.71 μmol/g of tissue | HPT (oxidative stress marker) [1]: 54.3 ± 11.87 | MDA (oxidative stress marker) [1]: 0.284 ± 0.01 | SODt (oxidative stress marker) [1]: 10814.68 ± 33.08 | No. of blood vessels positive to Congo Red [1]: 15.24 ± 1.24 | No. of blood vessels positive to Nissl [1]: 11.36 ± 6.4 | No. of hemorrhagic foci. [1]: 14.61 ± 3.31 | No. of subcortical infarctions. [1]: 27.11 ± 3.55 | No. of fields positive to collagen-specific staining [2]: 12.35 | No. of microscopic fields with mast cells (20X magnif.) [2]: 10.18 ± 2.98 | Hydroxiproline content in the tissue [2]: 88.59 ± 6.58 µg/g | Wet weight of the graft collected [2]: 6.25 ± 1.73 a grams

GHRP-2
Cabalase (oxidative stress marker) [1]: 48.23 ± 14.25 | Cerebral Myo-inositol [1]: 14.65 ± 4.38 μmol/g of tissue | HPT (oxidative stress marker) [1]: 117 ± 13.55 | MDA (oxidative stress marker) [1]: 0.302 ± 0.01 | SODt (oxidative stress marker) [1]: 11065.49 ± 46.29 | No. of blood vessels positive to Congo Red [1]: 18.26 ± 4.57 | No. of blood vessels positive to Nissl [1]: 13.8 ± 6.76 | No. of hemorrhagic foci. [1]: 11.79 ± 4.25 | No. of subcortical infarctions. [1]: 30.13 ± 5.72 | No. of fields positive to collagen-specific staining [2]: 18.12 | No. of microscopic fields with mast cells (20X magnif.) [2]: 11.17 ± 3.33 | Hydroxiproline content in the tissue [2]: 84.17 ± 7.75 µg/g | Wet weight of the graft collected [2]: 7.14 ± 1.02 a grams

Ghrelin: secretagogue peptide; active principle of the pharmaceutical composition (GSS(Octanoyl)FLSPEHQRVQQRKESKKPPAKLQPR; ends and bridges not checked; UniProt Q9UBU3 24-51, looked up)
Cabalase (oxidative stress marker) [1]: 44.67 ± 11.58 | Cerebral Myo-inositol [1]: 14.04 ± 3.85 μmol/g of tissue | HPT (oxidative stress marker) [1]: 142.16 ± 10.01 | MDA (oxidative stress marker) [1]: 0.261 ± 0.03 | SODt (oxidative stress marker) [1]: 12290.9 ± 60.32 | No. of blood vessels positive to Congo Red [1]: 17.67 ± 2.26 | No. of blood vessels positive to Nissl [1]: 11.27 ± 4.61 | No. of hemorrhagic foci. [1]: 13.06 ± 2.77 | No. of subcortical infarctions. [1]: 26.9 ± 4.27 | No. of fields positive to collagen-specific staining [2]: 11.27 | No. of microscopic fields with mast cells (20X magnif.) [2]: 10.71 ± 4.57 | Hydroxiproline content in the tissue [2]: 85.23 ± 4.11 µg/g | Wet weight of the graft collected [2]: 6.67 ± 1.53 a grams
